Consider 33 molecules from ChEMBL document CHEMBL5291721, “A preclinical secondary pharmacology resource illuminates target-adverse drug reaction associations of marketed drugs” (Nat Commun, 2023).

The structures appear in SMILES notation. Some results are limits rather than exact numbers.

For experiment [1], the target named is Vascular endothelial growth factor receptor 2 (Homo sapiens, UniProt P35968). In kind it is functional.
In another experiment the target is T1, Adenosine receptor A3 (Homo sapiens, UniProt P0DMS8).
T1 sequence (P0DMS8 whole entry): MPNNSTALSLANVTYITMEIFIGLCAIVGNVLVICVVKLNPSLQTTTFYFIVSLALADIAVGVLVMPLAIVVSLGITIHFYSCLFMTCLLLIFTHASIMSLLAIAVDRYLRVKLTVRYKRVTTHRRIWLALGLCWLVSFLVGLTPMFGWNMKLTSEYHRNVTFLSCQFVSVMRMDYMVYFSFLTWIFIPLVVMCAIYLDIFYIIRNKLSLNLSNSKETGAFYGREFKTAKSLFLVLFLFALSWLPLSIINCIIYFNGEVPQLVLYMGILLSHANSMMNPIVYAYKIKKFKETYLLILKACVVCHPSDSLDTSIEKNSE

Experiment [2] concerns the target T2, Muscarinic acetylcholine receptor M1 (Homo sapiens, UniProt P11229).
T2 sequence (P11229 whole entry): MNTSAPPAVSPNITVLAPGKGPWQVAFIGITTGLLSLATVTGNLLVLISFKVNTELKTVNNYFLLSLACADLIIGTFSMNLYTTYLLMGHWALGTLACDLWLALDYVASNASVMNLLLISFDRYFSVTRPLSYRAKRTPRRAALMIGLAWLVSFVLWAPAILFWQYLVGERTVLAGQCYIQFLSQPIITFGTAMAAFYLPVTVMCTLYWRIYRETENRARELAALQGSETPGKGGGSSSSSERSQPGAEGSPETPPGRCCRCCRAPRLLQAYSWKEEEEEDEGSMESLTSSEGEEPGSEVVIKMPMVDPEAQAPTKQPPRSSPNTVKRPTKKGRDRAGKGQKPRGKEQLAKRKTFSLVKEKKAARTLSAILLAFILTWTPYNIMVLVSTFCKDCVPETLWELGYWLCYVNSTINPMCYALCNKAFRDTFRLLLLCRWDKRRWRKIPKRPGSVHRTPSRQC
In kind it is functional, cell-based.

Experiment [3] concerns the target T3, Alpha-2C adrenergic receptor (Homo sapiens, UniProt P18825).
T3 sequence (P18825 whole entry): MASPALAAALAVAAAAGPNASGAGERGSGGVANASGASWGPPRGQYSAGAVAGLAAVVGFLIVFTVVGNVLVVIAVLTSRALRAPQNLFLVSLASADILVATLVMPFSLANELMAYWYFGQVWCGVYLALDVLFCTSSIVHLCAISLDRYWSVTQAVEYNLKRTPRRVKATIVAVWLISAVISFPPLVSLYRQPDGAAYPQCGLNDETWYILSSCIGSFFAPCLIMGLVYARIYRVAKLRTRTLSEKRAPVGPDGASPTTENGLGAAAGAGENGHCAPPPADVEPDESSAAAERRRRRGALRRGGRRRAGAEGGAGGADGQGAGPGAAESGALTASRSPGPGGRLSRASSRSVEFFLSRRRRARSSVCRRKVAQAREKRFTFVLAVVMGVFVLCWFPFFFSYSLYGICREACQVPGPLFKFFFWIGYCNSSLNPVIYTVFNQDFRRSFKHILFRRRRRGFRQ
The class given is functional.

In experiment [4] the target is T4, Equilibrative nucleoside transporter 1 (Homo sapiens, UniProt Q99808).
T4 sequence (Q99808 whole entry): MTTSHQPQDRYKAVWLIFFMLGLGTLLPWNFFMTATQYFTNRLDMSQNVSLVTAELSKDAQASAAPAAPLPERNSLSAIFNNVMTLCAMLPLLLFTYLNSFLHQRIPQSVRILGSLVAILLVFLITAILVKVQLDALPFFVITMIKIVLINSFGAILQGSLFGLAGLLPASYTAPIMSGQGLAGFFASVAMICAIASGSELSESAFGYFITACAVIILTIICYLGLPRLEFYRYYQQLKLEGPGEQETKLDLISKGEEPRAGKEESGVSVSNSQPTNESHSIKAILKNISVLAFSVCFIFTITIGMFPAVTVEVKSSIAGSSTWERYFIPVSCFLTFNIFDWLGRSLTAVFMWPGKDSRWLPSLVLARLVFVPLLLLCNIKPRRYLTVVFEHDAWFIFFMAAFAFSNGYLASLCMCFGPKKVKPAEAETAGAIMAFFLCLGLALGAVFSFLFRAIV

For experiment [5], the target named is Voltage-dependent L-type calcium channel subunit alpha-1C (Rattus norvegicus, UniProt P22002). The class given is functional.
The target in experiment [6] is Sodium-dependent dopamine transporter (Homo sapiens, UniProt Q01959).
Experiment [7] addresses 5-hydroxytryptamine receptor 2B (Homo sapiens, UniProt P41595). In kind it is functional, cell-based.
Note: assay procedure not described here.

Vascular endothelial growth factor receptor 2, sequence (P35968 whole entry): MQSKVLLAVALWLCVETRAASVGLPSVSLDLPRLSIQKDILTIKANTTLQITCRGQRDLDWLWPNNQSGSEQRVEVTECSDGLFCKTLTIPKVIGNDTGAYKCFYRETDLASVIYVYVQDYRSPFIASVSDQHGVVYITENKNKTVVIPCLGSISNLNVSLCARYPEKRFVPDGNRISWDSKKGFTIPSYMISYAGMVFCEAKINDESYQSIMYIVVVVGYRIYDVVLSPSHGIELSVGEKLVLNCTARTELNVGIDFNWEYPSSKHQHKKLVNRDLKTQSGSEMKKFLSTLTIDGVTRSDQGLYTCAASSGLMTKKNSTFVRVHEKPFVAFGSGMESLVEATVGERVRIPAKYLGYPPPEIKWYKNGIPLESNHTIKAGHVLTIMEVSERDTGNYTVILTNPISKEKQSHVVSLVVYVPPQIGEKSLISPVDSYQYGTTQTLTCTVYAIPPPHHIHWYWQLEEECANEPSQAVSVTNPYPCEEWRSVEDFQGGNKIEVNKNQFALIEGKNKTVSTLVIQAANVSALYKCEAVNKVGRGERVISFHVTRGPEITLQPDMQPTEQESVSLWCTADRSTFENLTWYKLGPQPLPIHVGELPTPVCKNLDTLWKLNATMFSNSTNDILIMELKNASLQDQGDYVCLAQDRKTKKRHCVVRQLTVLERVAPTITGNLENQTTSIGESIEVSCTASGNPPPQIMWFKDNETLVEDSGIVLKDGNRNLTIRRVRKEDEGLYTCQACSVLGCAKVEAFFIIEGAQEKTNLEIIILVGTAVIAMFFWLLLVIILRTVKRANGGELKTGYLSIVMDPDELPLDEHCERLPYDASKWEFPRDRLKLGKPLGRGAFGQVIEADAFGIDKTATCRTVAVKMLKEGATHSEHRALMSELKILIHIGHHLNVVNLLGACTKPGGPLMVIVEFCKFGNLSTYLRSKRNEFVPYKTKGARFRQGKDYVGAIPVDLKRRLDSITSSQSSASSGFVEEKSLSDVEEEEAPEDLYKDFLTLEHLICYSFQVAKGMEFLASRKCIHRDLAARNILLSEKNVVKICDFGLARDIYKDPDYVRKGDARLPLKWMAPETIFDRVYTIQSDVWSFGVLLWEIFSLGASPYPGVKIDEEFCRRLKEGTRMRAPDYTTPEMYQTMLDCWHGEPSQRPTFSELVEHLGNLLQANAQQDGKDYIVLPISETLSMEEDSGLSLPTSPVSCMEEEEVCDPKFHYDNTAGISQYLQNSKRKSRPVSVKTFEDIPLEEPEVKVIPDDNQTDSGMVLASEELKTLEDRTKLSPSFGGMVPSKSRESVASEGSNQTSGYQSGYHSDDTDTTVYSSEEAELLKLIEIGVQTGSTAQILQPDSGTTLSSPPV
5-hydroxytryptamine receptor 2B, sequence (P41595 whole entry): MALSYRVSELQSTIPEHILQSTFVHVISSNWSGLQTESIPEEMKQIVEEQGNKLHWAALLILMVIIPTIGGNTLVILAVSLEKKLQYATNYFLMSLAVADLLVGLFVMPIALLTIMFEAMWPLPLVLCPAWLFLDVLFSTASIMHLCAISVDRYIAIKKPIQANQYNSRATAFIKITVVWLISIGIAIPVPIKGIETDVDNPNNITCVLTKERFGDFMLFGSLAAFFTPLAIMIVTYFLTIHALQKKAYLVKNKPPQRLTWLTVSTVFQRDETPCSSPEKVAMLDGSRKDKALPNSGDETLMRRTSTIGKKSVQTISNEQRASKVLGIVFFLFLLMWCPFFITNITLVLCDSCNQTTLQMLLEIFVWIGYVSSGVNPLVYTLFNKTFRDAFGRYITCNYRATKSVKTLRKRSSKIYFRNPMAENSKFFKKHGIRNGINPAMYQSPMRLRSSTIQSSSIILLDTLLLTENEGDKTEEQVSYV
Voltage-dependent L-type calcium channel subunit alpha-1C, sequence (P22002 whole entry): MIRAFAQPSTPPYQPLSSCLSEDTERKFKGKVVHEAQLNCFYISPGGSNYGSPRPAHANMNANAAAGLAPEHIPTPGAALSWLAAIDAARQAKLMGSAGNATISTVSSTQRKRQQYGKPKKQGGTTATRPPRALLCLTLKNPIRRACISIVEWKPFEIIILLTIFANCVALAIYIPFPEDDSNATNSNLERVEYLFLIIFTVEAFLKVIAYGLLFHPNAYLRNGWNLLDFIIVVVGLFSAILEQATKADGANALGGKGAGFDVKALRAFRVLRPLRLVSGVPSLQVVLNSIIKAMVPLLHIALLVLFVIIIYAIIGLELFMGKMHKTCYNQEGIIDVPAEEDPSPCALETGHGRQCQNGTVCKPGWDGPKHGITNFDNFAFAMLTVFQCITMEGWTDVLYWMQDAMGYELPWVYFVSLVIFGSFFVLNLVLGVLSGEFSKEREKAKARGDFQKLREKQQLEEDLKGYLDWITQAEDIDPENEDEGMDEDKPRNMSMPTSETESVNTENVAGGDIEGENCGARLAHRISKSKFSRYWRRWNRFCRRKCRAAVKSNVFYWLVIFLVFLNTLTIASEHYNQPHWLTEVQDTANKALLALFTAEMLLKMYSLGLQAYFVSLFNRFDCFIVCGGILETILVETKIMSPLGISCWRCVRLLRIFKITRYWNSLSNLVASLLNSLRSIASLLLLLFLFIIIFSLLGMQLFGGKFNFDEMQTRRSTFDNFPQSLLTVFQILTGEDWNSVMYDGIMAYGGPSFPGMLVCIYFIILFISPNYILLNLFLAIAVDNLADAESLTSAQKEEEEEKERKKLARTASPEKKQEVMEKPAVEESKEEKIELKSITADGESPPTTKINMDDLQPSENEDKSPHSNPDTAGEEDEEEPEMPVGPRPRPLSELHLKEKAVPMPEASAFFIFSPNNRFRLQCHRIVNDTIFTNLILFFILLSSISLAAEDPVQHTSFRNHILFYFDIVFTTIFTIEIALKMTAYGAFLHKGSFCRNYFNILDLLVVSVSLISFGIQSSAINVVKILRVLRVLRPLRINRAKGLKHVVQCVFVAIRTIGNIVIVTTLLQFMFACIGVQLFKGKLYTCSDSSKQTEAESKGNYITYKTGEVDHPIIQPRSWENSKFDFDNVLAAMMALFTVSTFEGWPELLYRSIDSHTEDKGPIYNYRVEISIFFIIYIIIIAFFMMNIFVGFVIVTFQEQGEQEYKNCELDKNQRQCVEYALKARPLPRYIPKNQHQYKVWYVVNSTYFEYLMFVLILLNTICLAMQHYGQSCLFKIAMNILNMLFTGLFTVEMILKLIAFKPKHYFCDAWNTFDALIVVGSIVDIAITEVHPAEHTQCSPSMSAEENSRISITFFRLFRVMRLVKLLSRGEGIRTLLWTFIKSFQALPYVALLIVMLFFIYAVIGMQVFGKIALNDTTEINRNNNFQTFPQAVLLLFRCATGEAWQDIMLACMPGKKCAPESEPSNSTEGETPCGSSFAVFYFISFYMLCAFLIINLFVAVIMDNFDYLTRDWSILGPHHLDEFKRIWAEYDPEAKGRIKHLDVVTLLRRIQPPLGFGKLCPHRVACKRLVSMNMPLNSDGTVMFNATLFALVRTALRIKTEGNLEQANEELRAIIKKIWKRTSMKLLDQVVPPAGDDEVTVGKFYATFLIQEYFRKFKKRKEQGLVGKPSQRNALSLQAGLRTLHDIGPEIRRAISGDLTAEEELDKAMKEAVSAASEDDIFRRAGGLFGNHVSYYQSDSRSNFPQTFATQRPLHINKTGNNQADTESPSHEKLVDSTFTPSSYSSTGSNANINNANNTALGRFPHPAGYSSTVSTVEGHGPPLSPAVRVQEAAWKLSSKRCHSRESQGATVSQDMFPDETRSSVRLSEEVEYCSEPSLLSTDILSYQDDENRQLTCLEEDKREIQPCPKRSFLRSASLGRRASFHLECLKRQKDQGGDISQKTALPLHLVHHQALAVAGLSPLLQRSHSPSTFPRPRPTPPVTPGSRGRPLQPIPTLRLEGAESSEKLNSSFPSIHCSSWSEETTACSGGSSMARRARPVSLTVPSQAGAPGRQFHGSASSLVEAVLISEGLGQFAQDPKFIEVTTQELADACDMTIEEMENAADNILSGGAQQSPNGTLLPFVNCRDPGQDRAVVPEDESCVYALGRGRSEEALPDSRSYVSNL
Sodium-dependent dopamine transporter, sequence (Q01959 whole entry): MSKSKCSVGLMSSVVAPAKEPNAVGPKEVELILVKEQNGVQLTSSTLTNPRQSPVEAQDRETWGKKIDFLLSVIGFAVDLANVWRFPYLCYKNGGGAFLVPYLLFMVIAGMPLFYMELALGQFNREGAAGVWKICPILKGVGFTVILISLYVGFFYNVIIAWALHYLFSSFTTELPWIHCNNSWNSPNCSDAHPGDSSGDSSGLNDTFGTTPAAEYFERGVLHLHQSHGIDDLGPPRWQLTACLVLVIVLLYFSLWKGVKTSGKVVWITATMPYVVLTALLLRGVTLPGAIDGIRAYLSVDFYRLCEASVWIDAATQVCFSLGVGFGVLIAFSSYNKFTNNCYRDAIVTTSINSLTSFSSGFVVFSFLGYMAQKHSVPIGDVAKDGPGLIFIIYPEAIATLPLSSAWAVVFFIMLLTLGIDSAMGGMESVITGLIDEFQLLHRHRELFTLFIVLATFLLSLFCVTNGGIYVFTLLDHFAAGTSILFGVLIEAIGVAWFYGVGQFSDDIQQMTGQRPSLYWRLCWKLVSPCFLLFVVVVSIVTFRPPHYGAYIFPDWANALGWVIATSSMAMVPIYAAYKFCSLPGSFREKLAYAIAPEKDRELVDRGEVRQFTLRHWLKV

Consider `Cc1cc2c(cc1S(N)(=O)=O)S(=O)(=O)CCC2`, for which the concentration at half-maximal activity (AC50) (in experiment [1]; on Adenosine receptor A3; in experiment [2]) was above 30 µM each time.
Consider `C[C@H](N[C@@H](CCc1ccccc1)C(=O)O)C(=O)N1Cc2ccccc2C[C@H]1C(=O)O`, for which the half-maximal activity concentration (AC50) (in experiment [1]; at Adenosine receptor A3; in experiment [2]) was above 30 µM each time.
With `O=C(O)[C@@H]1C[C@@H](O)CN1`, the AC50 (in experiment [1]; at Adenosine receptor A3; in experiment [2]) was above 30 µM throughout.
With `CC1(C)S[C@@H]2[C@H](/N=C/N3CCCCCC3)C(=O)N2[C@H]1C(=O)O` [AMDINOCILLIN], the concentration at half-maximal activity (AC50) (in experiment [1]; on Adenosine receptor A3; in experiment [2]) was above 30 µM throughout.
Take `CC(=O)[C@]1(N)Cc2c(O)c3c(c(O)c2[C@@H](O[C@H]2C[C@H](O)[C@H](O)CO2)C1)C(=O)c1ccccc1C3=O` [AMRUBICIN]: the values for the AC50 (in experiment [1]; on Adenosine receptor A3; in experiment [2]) were above 30 µM, above 30 µM and above 3 µM, respectively.
`NC(=O)[C@@H]1CC[C@@H]2CN1C(=O)N2OS(=O)(=O)O` [AVIBACTAM]: the concentration at half-maximal activity (AC50) (in experiment [1]; at Adenosine receptor A3; in experiment [2]) was above 30 µM in each case.
Consider `CC(C)(C)NC(=O)N[C@H](C(=O)N1C[C@H]2[C@@H]([C@H]1C(=O)NC(CC1CCC1)C(=O)C(N)=O)C2(C)C)C(C)(C)C` (stereo not given in full) [BOCEPREVIR], for which the AC50 (in experiment [1]; at Adenosine receptor A3; in experiment [2]) was above 30 µM throughout.
As for `Cc1ncc2c(c1O)COC2c1ccc(Cl)cc1` (stereo not given) [CICLETANINE], the half-maximal activity concentration (AC50) (in experiment [1]; on Adenosine receptor A3; in experiment [2]) was above 30 µM each time.
With `Cc1cn([C@H]2O[C@@H](CO)[C@H](O)[C@H]2F)c(=O)[nH]c1=O` [CLEVUDINE], the AC50 (on Adenosine receptor A3; in experiment [2]) was above 30 µM throughout.
Take `N#Cc1ccc(Oc2ccc3c(c2)COB3O)cc1` [CRISABOROLE]: the AC50 (commonly the midpoint of the concentration-response curve, whichever way the signal moves) in experiment [1] was above 30 µM; on Adenosine receptor A3 it was above 30 µM; in experiment [2], 13.7 µM.
Regarding `CC(=O)[C@H]1CC[C@H]2[C@@H]3C=CC4=CC(=O)CC[C@@]4(C)[C@@H]3CC[C@]12C` [DYDROGESTERONE], the AC50 is above 30 µM at Adenosine receptor A3 and 5.06 µM in experiment [2].
With `CC(=O)O[C@H]1Cc2ccccc2N(C(N)=O)c2ccccc21` [ESLICARBAZEPINE ACETATE], the concentration at half-maximal activity (AC50) (in experiment [1]; at Adenosine receptor A3; in experiment [2]) was above 30 µM throughout.
With `C[C@@H]1C[C@H]2[C@@H]3C[C@H](F)C4=CC(=O)C=C[C@]4(C)[C@@]3(F)[C@@H](O)C[C@]2(C)[C@@]1(OC(=O)c1ccco1)C(=O)SCF` [FLUTICASONE FUROATE], the concentration at half-maximal activity (AC50) was above 10 µM in experiment [3]; above 10 µM in experiment [4]; above 10 µM in experiment [5]; above 10 µM in experiment [6]; above 10 µM in experiment [7]; above 30 µM in experiment [2].
As to `Cc1ccc(S(=O)(=O)NC(=O)NC2CCCCC2)cc1` [GLYCYCLAMIDE], the AC50 is above 30 µM in experiment [1], 12.7 µM at Adenosine receptor A3 and above 30 µM in experiment [2].
Turning to `CN1CCCN(C(c2ccccc2)c2ccc(Cl)cc2)CC1` (stereo not given) [HOMOCHLORCYCLIZINE], the concentration at half-maximal activity (AC50) in experiment [1] was above 30 µM; on Adenosine receptor A3 it was above 30 µM; in experiment [2], 0.12 µM.
Consider `CC(=O)OCC(=O)[C@@]1(O)CC[C@H]2[C@@H]3CCC4=CC(=O)CC[C@]4(C)[C@H]3[C@@H](O)C[C@@]21C` [HYDROCORTISONE ACETATE], for which the concentration at half-maximal activity (AC50) in experiment [1] was above 30 µM; at Adenosine receptor A3, above 30 µM; in experiment [2], 17.7 µM.
On to `CC(COc1ccccc1)NC(C)C(O)c1ccc(O)cc1` (stereo not given) [ISOXSUPRINE], for which the AC50 (in experiment [1]; at Adenosine receptor A3; in experiment [2]) was above 30 µM in each case.
`O=C(CCC/C=C\C[C@@H]1[C@@H](CC[C@@H](O)CCc2ccccc2)[C@H](O)C[C@@H]1O)OCCCCO[N+](=O)[O-]` [LATANOPROSTENE BUNOD]: in experiment [2], the concentration at half-maximal activity (AC50) was above 10 µM.
For `Cc1oc(=O)oc1COC(=O)[C@@H]1N2C(=O)[C@@H](NC(=O)[C@H](N)c3ccccc3)[C@H]2SC1(C)C` [LENAMPICILLIN], the half-maximal activity concentration (AC50) in experiment [1] was above 30 µM; on Adenosine receptor A3, above 30 µM; in experiment [2] it was 9.21 µM.
For the molecule `COc1ccc(OC)c(C(O)C(C)N)c1` (stereo not given) [METHOXAMINE], the half-maximal activity concentration (AC50) (in experiment [1]; on Adenosine receptor A3; in experiment [2]) was above 30 µM in each case.
On to `CC1(CCN2CCCCC2)C(=O)CCc2ccccc21` (stereo not given) [NEPINALONE], for which the AC50 (in experiment [1]; at Adenosine receptor A3; in experiment [2]) was above 30 µM in each case.
Take `COC(=O)C[C@](O)(CCCC(C)(C)O)C(=O)O[C@@H]1C(OC)=C[C@]23CCCN2CCc2cc4c(cc2[C@H]13)OCO4` [OMACETAXINE MEPESUCCINATE]: the AC50 in experiment [2] was above 30 µM.
Turning to `COc1cccc(C(=O)CCN[C@@H](C)[C@H](O)c2ccccc2)c1` [OXYFEDRINE], the concentration at half-maximal activity (AC50) (in experiment [1]; at Adenosine receptor A3; in experiment [2]) was above 30 µM throughout.
With `CC[N+](C)(CC)CCOC(=O)C(O)(c1ccccc1)C1CCCCC1` (stereo not given) [OXYPHENONIUM], the AC50 in experiment [1] was above 30 µM; at Adenosine receptor A3, above 30 µM; in experiment [2] it was 0.003 µM.
Take `C[C@@H]1C[C@H]2[C@@H]3C[C@H](F)C4=CC(=O)C=C[C@]4(C)[C@H]3[C@@H](O)C[C@]2(C)[C@@]1(O)C(=O)CO` [PARAMETHASONE]: the AC50 (in experiment [1]; on Adenosine receptor A3; in experiment [2]) was above 30 µM throughout.
Turning to `CCC[C@H](N[C@@H](C)C(=O)N1[C@H](C(=O)O)C[C@@H]2CCCC[C@@H]21)C(=O)OCC` [PERINDOPRIL], the AC50 (in experiment [1]; at Adenosine receptor A3; in experiment [2]) was above 30 µM each time.
Turning to `N[C@@H](Cc1ccccc1)C(=O)O` [PHENYLALANINE], the AC50 (in experiment [1]; on Adenosine receptor A3; in experiment [2]) was above 30 µM throughout.
As to `CCCn1cnc2c1c(=O)n(CCCCC(C)=O)c(=O)n2C` [PROPENTOFYLLINE], the concentration at half-maximal activity (AC50) (in experiment [1]; on Adenosine receptor A3; in experiment [2]) was above 30 µM each time.
Turning to `Clc1ccc(C(Cn2ccnc2)OCc2csc3c(Cl)cccc23)c(Cl)c1` (stereo not given) [SERTACONAZOLE], the concentration at half-maximal activity (AC50) in experiment [1] is above 30 µM; on Adenosine receptor A3, 1.63 µM; in experiment [2] it was 9.44 µM.
The corresponding values for `CC(OCCN1CCCCCC1)(c1ccccc1)c1ccc(Cl)cc1` (stereo not given) [SETASTINE] are above 30 µM, above 30 µM and 0.493 µM.
As to `COc1cc(C)c2c(Oc3cccc(C(F)(F)F)c3)c(OC)cc(NC(C)CCCN)c2n1` (stereo not given) [TAFENOQUINE], in experiment [2], the AC50 is above 3 µM.
As for `CCCSc1nc(N[C@@H]2C[C@H]2c2ccc(F)c(F)c2)c2nnn([C@@H]3C[C@H](OCCO)[C@@H](O)[C@H]3O)c2n1` [TICAGRELOR], the AC50 in experiment [1] is above 30 µM; in experiment [4] it was 0.365 µM; on Adenosine receptor A3, 0.106 µM; in experiment [2], 8.29 µM.
On to `c1ccc2c(SC3=NCCN3)c[nH]c2c1` [TINAZOLINE], for which the concentration at half-maximal activity (AC50) (in experiment [1]; at Adenosine receptor A3; in experiment [2]) was above 30 µM throughout.
